According to publication PMC9000250, “Computational Methods for Understanding the Selectivity and Signal Transduction Mechanism of Aminomethyl Tetrahydronaphthalene to Opioid Receptors” (Molecules, 2022):
“And” between values parts separate entries of the source, which are not always exact repeats. Equal entries are not always repeated. Where two headings read alike, the source gives them in different places.

What was measured:
human MOR [1] = target: T1, human MOR (Homo sapiens, UniProt P35372); assay: [35S]GTP-γ-S functional assay, CHO cell membranes; assay type: biochemical; conditions: stimulation of [35S]GTPγS binding; NA = no activity
T1 sequence (P35372 whole entry): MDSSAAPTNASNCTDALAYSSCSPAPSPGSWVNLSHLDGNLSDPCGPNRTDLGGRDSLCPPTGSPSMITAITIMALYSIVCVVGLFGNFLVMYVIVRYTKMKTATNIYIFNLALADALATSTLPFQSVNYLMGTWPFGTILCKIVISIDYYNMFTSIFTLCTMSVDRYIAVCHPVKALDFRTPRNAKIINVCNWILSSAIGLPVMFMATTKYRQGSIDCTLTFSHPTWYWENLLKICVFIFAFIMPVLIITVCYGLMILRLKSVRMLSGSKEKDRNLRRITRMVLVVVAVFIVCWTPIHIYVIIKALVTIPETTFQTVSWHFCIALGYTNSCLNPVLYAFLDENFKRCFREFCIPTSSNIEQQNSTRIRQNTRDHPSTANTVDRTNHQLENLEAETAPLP
Protocol: In a final volume of 0.5 mL, various concentrations of each tested compound were incubated with […] (μ) of CHO cell membranes that stably expressed the human MOR. The assay buffer consisted of 50 mM Tris-HCl, pH 7.4, 3 mM MgCl2, 0.2 mM EGTA, […] and 100 mM NaCl. The final concentration of [^35S]GTP-γ-S was 0.08 nM. Nonspecific binding was measured by the inclusion of […] GTP-γ-S. Binding was initiated by the addition of the membranes. After an incubation period of 60 min at 30 °C, the reactions were terminated by rapid filtration, and the radioactivity was determined by liquid scintillation counting.

human MOR [2] = target: T1, human MOR; assay: Radioligand binding assay, displacement of [3H]DAMGO from CHO cell membranes
DOR [3] = target: T2, DOR (Homo sapiens, UniProt P41143); assay: Radioligand binding assay, displacement of [3H]DPDPE from CHO cell membranes; set-up: host or cells: CHO cells, stably transfected; membranes; conditions: for activity / affinity for DOR, in words: in vitro; for Ki: [3H]DPDPE, CHO membranes, read-out: Ki (±SEM) DOR
T2 sequence (P41143 whole entry): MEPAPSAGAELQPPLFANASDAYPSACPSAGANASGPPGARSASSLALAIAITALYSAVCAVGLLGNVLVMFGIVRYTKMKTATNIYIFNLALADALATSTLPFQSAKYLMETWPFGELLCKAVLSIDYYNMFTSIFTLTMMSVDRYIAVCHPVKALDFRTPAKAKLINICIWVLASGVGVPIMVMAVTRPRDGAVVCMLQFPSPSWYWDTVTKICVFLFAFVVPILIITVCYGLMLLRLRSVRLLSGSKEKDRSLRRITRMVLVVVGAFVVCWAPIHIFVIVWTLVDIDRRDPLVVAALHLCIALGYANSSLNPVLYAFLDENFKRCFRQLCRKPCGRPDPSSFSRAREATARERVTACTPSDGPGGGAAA

KOR [4] = target: T3, KOR (Homo sapiens, UniProt P41145); assay: Radioligand binding assay, displacement of [3H]U69593 from CHO cells; set-up: host or cells: CHO cells, stably transfected; membranes; conditions: for inhibition at 1 µM: displacement of [3H]U69593 at 1.0 μM
T3 sequence (P41145 whole entry): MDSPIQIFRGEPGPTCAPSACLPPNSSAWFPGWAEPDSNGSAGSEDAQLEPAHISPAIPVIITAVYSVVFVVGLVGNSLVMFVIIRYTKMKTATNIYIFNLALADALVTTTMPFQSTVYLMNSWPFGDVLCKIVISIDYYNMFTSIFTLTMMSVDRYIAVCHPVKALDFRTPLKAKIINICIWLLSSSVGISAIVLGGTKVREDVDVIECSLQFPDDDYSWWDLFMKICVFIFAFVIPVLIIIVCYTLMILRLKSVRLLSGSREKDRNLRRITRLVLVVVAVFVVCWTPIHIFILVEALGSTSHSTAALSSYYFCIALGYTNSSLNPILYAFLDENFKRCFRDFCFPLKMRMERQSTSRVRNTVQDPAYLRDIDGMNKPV

human MOR [5] = target: T1, human MOR; set-up: method as in PMID 27096047; conditions: cited from earlier work
KOR [6] = target: T3, KOR; set-up: expressed in transfected cells; method as in PMID 27096047; conditions: stimulation of [35S]GTPγS binding; NA = no activity; cited from earlier work
DOR [7] = target: T2, DOR; set-up: host or cells: CHO cells, stably transfected; membranes; method as in PMID 27096047
KOR [8] = target: T3, KOR; set-up: host or cells: CHO cells, stably transfected; membranes; method as in PMID 27096047; conditions: cited from earlier work; for Ki: read-out: Ki (±SEM) KOR
DOR [9] = target: T2, DOR; set-up: expressed in transfected cells; method as in PMID 27096047; conditions: stimulation of [35S]GTPγS binding; NA = no activity; cited from earlier work

## C[C@@H](NC(=O)[C@@H](N)Cc1ccc(O)cc1)C(=O)NCC(=O)N(C)[C@@H](Cc1ccccc1)C(=O)NCCO [DAMGO]
Human MOR [1]
  Emax: 205 ± 2.05%

## CN(C)CC1CCc2ccccc2C1(O)c1cccc(O)c1 (stereo not shown) [FW-1]
Human MOR [2]; in vitro
  activity for MOR, in words: not be active
Human MOR [2]; read-out: Ki (±SEM) MOR
  Ki: > 10 µM
DOR [3]
  inhibition at 1 µM: 21.7 ± 2.9%
  activity / affinity for DOR, in words: not be active
KOR [4]
  inhibition at 1 µM: 56.3 ± 4.9%
KOR [4]; in vitro
  activity for KOR, in words: not be active

## CN(C)CC1CCc2cc(-c3ccccc3)ccc2C1(O)c1cccc(O)c1 (stereo not shown) [FW-AII-OH-1]
Human MOR [5]; displacement of [3H]DAMGO at 1.0 μM
  Inhibition (%) MOR: 20 ± 1.0%
KOR [6]
  EC50: 580 ± 84 nM
  KOR Emax%: 187 ± 2%
DOR [7]; displacement of [3H]DPDPE at 1.0 μM; cited from earlier work
  Inhibition (%) DOR: 22.0 ± 1.0%
KOR [8]
  Ki: 141 nM and 140 nM

## COc1ccccc1-c1ccc2c(c1)CCC(CN(C)C)C2(O)c1cccc(O)c1 (stereo not shown) [FW-AII-OH-2]
Human MOR [5]; [3H]DAMGO, CHO membranes, >10^4 = no binding affinity up to 10^4 nM, read-out: Ki (±SEM) MOR
  Ki: > 10 µM
DOR [9]
  DOR Emax%: 230 ± 7%
  EC50: 9.3 ± 0.5 nM
DOR [7]; [3H]DPDPE, CHO membranes; >10^4 = no binding affinity up to 10^4 nM; read-out: Ki (±SEM) DOR; cited from earlier work
  Ki: 4.64 nM and 4.7 nM
KOR [8]; displacement of [3H]U69593 at 1.0 μM
  Inhibition (%) KOR: 17.7 ± 0.1%

## COc1ccccc1-c1ccc2c(c1)CCC(CN(C)CCc1ccccc1)C2(O)c1cccc(O)c1.Cl (stereo not shown) [FW-DI-OH-2, 1-(3-hydroxyphenyl)-6-(2-methoxyphenyl)-2-((methyl(phenethyl)amino)methyl)-1,2,3,4-tetrahydronaphthalen-1-ol hydrochloride]
other
  melting point: 200.2 to 202.4 °C
DOR [3]
  Ki: 8.7 nM and 8.65 nM
  activity / affinity for DOR, in words: high affinitive
KOR [4]
  inhibition at 1 µM: 30.1 ± 2.1%

## CN(CCc1ccccc1)CC1CCc2cc(-c3ccccc3)ccc2C1(O)c1cccc(O)c1.Cl (stereo not shown) [FW-DIII-OH-2, 1-(3-hydroxyphenyl)-2-((methyl(phenethyl)amino)methyl)-6-phenyl-1,2,3,4-tetrahydronaphthalen-1-ol hydrochloride]
other
  melting point: 202.1 to 204.6 °C
DOR [3]
  Ki: 228 nM and 229 nM
  activity / affinity for DOR, in words: moderate affinity
KOR [4]
  inhibition at 1 µM: 13.5 ± 0.1%

## CN(C)CC1CCCCC1(O)c1cccc(O)c1 (stereo not shown) [M1, reference compound]
Human MOR [1]
  Emax: 226 ± 9%
DOR [7]; read-out: Ki (±SEM) DOR; [3H]DPDPE, CHO membranes; >10^4 = no binding affinity up to 10^4 nM; cited from earlier work
  Ki: > 10000 nM
KOR [8]; [3H]U69593, CHO cells, >10^4 = no binding affinity up to 10^4 nM
  Ki: > 10000 nM
